Measurements as given in US12162840B2, “Herbicidal compositions” (SYNGENTA PARTICIPATIONS AG, priority 2018, dated 2024).

Test system: cool season plant species
Experiment: B2 Post-emergence efficacy Test 2, cool season plant species
Type: in vivo
Details: 15 days after application, 0=no damage, 100=total kill
How it was run: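 Herbicidal effect rated visually 0 (no damage) to 100 (complete kill) at 15 days post-treatment. Post-emergence spray at 12 days used an IF50 formulation with 0.2% v/v Genapol XO80 adjuvant; glasshouse 24/18 or 20/16 °C, 16 h light, 65% humidity.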

Cc1nn(C)c(=O)c(-c2c(F)ccc(Cl)c2CCc2ccc(C#N)cc2)c1O [Compound 1.024]
Herbicidal activity (0-100 scale) ALOMY (15 g/Ha): 10
Herbicidal activity (0-100 scale) ALOMY (30 g/Ha): 30
Herbicidal activity (0-100 scale) ALOMY (60 g/Ha): 50
Herbicidal activity (0-100 scale) ALOMY (125 g/Ha): 70
Herbicidal activity (0-100 scale) ALOMY (250 g/Ha): 70
Herbicidal activity (0-100 scale) ALOMY (500 g/Ha): 70
Herbicidal activity (0-100 scale) AVEFA (15 g/Ha): 10
Herbicidal activity (0-100 scale) AVEFA (30 g/Ha): 20
Herbicidal activity (0-100 scale) AVEFA (60 g/Ha): 30
Herbicidal activity (0-100 scale) AVEFA (125 g/Ha): 60
Herbicidal activity (0-100 scale) AVEFA (250 g/Ha): 70
Herbicidal activity (0-100 scale) AVEFA (500 g/Ha): 80
Herbicidal activity (0-100 scale) BEAVA (15 g/Ha): 70
Herbicidal activity (0-100 scale) BEAVA (30 g/Ha): 70
Herbicidal activity (0-100 scale) BEAVA (60 g/Ha): 80
Herbicidal activity (0-100 scale) BEAVA (125 g/Ha): 80
Herbicidal activity (0-100 scale) BEAVA (250 g/Ha): 80
Herbicidal activity (0-100 scale) BEAVA (500 g/Ha): 100
Herbicidal activity (0-100 scale) BROTE (15 g/Ha): 0
Herbicidal activity (0-100 scale) BROTE (30 g/Ha): 0
Herbicidal activity (0-100 scale) BROTE (60 g/Ha): 10
Herbicidal activity (0-100 scale) BROTE (125 g/Ha): 20
Herbicidal activity (0-100 scale) BROTE (250 g/Ha): 40
Herbicidal activity (0-100 scale) BROTE (500 g/Ha): 70
Herbicidal activity (0-100 scale) BRSNN (15 g/Ha): 80
Herbicidal activity (0-100 scale) BRSNN (30 g/Ha): 90
Herbicidal activity (0-100 scale) BRSNN (60 g/Ha): 90
Herbicidal activity (0-100 scale) BRSNN (125 g/Ha): 90
Herbicidal activity (0-100 scale) BRSNN (250 g/Ha): 90
Herbicidal activity (0-100 scale) BRSNN (500 g/Ha): 90
Herbicidal activity (0-100 scale) CHEAL (15 g/Ha): 60
Herbicidal activity (0-100 scale) CHEAL (30 g/Ha): 90
Herbicidal activity (0-100 scale) CHEAL (60 g/Ha): 90
Herbicidal activity (0-100 scale) CHEAL (125 g/Ha): 90
Herbicidal activity (0-100 scale) CHEAL (250 g/Ha): 90
Herbicidal activity (0-100 scale) CHEAL (500 g/Ha): 100
Herbicidal activity (0-100 scale) GALAP (30 g/Ha): 20
Herbicidal activity (0-100 scale) GALAP (60 g/Ha): 20
Herbicidal activity (0-100 scale) GALAP (125 g/Ha): 60
Herbicidal activity (0-100 scale) GALAP (250 g/Ha): 90
Herbicidal activity (0-100 scale) GALAP (500 g/Ha): 90
Herbicidal activity (0-100 scale) HORVW (15 g/Ha): 0
Herbicidal activity (0-100 scale) HORVW (30 g/Ha): 10
Herbicidal activity (0-100 scale) HORVW (60 g/Ha): 10
Herbicidal activity (0-100 scale) HORVW (125 g/Ha): 10
Herbicidal activity (0-100 scale) HORVW (250 g/Ha): 10
Herbicidal activity (0-100 scale) HORVW (500 g/Ha): 20
Herbicidal activity (0-100 scale) KCHSC (15 g/Ha): 0
Herbicidal activity (0-100 scale) KCHSC (30 g/Ha): 0
Herbicidal activity (0-100 scale) KCHSC (60 g/Ha): 0
Herbicidal activity (0-100 scale) KCHSC (125 g/Ha): 10
Herbicidal activity (0-100 scale) KCHSC (250 g/Ha): 10
Herbicidal activity (0-100 scale) KCHSC (500 g/Ha): 20
Herbicidal activity (0-100 scale) LOLPE (15 g/Ha): 10
Herbicidal activity (0-100 scale) LOLPE (30 g/Ha): 70
Herbicidal activity (0-100 scale) LOLPE (60 g/Ha): 70
Herbicidal activity (0-100 scale) LOLPE (125 g/Ha): 90
Herbicidal activity (0-100 scale) LOLPE (250 g/Ha): 90
Herbicidal activity (0-100 scale) LOLPE (500 g/Ha): 90
Herbicidal activity (0-100 scale) POAAN (15 g/Ha): 10
Herbicidal activity (0-100 scale) POAAN (30 g/Ha): 20
Herbicidal activity (0-100 scale) POAAN (60 g/Ha): 30
Herbicidal activity (0-100 scale) POAAN (125 g/Ha): 80
Herbicidal activity (0-100 scale) POAAN (250 g/Ha): 80
Herbicidal activity (0-100 scale) POAAN (500 g/Ha): 90
Herbicidal activity (0-100 scale) POLCO (15 g/Ha): 80
Herbicidal activity (0-100 scale) POLCO (60 g/Ha): 90
Herbicidal activity (0-100 scale) POLCO (125 g/Ha): 90
Herbicidal activity (0-100 scale) POLCO (250 g/Ha): 90
Herbicidal activity (0-100 scale) POLCO (500 g/Ha): 100
Herbicidal activity (0-100 scale) SINAR (15 g/Ha): 80
Herbicidal activity (0-100 scale) SINAR (30 g/Ha): 80
Herbicidal activity (0-100 scale) SINAR (60 g/Ha): 80
Herbicidal activity (0-100 scale) SINAR (250 g/Ha): 90
Herbicidal activity (0-100 scale) SINAR (500 g/Ha): 100
Herbicidal activity (0-100 scale) STEME (15 g/Ha): 90
Herbicidal activity (0-100 scale) STEME (30 g/Ha): 90
Herbicidal activity (0-100 scale) STEME (60 g/Ha): 90
Herbicidal activity (0-100 scale) STEME (125 g/Ha): 90
Herbicidal activity (0-100 scale) STEME (250 g/Ha): 90
Herbicidal activity (0-100 scale) STEME (500 g/Ha): 100
Herbicidal activity (0-100 scale) TRZAW (15 g/Ha): 0
Herbicidal activity (0-100 scale) TRZAW (30 g/Ha): 0
Herbicidal activity (0-100 scale) TRZAW (60 g/Ha): 20
Herbicidal activity (0-100 scale) TRZAW (125 g/Ha): 30
Herbicidal activity (0-100 scale) TRZAW (250 g/Ha): 60
Herbicidal activity (0-100 scale) TRZAW (500 g/Ha): 70
Herbicidal activity (0-100 scale) VERPE (15 g/Ha): 80
Herbicidal activity (0-100 scale) VERPE (30 g/Ha): 80
Herbicidal activity (0-100 scale) VERPE (60 g/Ha): 90
Herbicidal activity (0-100 scale) VERPE (125 g/Ha): 80
Herbicidal activity (0-100 scale) VERPE (250 g/Ha): 100
Herbicidal activity (0-100 scale) VERPE (500 g/Ha): 100
